Test: Human HepG2 cell viability assay in 384 well format
Type: toxicity, cell-based
Design: dose 125 nL, time 70.5 hour; concentration not given beside the values
Conditions: HepG2 cells, read-out: Inhibition

SMILES	cytotoxicity at 70.5 h
N[C@H]1CN(CCOc2ccc(F)cc2)C[C@@H]1C1CC1	14.7%
Cc1ccccc1-c1noc(-c2ccc(N(C)C3CCOCC3)nc2)n1	-2.11%
CCc1nccn1CCC(=O)N1CCOC(c2ccc(F)cc2)C1 (centres undefined)	-6.46%
CCCn1cc(C(=O)NCC(=O)NC2CC2)c(C)n1	-0.483%
Cc1ccc(-n2cc(CN3CCN(C)[C@@H]4CS(=O)(=O)C[C@@H]43)cn2)cc1	-5.8%
Cc1nc(C2CCN(C)CC2)cc(N2CCOc3ccc(Cl)cc3C2)n1	32.5%
CN(Cc1ccc(C2CC(=O)Nc3cc4[nH]ncc4cc32)o1)S(C)(=O)=O (centres undefined)	-0.109%
CC(C)CN1CCCC1c1ccc(C(=O)Nc2cc[nH]n2)s1 (centres undefined)	-0.844%
CCCc1cnc(C)nc1N1CCC(Cn2cc(CN(C)C)nn2)CC1	-6.13%
Cc1nc(CCNC(=O)C2CCN(C(C)C)CC2)sc1Cl	-0.288%
Cc1cc(CN2CCC(C(=O)O)(n3ccc(-c4ccco4)n3)CC2)on1	-2.92%
Cc1cc(C)n(CC(C)NC(=O)c2cc(CN3CCC(O)CC3)on2)n1 (centres undefined)	-9.49%
COc1cccc(CCC2CCCN(C(C)=O)C2)c1 (centres undefined)	-1.99%
COc1ccccc1CNC(=O)CN(C)C(C)c1ccncn1 (centres undefined)	-18.5%
Cc1ccc(CN2CCC(Cc3nnc(CO)n3C)CC2)cc1C	3.69%
O=c1c2cccc(F)c2ncn1CCN1CCOCC1	-3.65%
CN1CC2(CCN(C(=O)Cc3ccc(O)c(F)c3)CC2)CC1=O	10.1%
O=C(NCc1ccoc1)c1ccc(C2CCCN2CC2CCOCC2)s1 (centres undefined)	38.9%
Cc1nc(C(C)NC(=O)c2cn(C/C=C/c3ccccc3)nn2)n[nH]1 (centres undefined)	-13.1%
COCc1ccc(C(=O)N2CCN(CC3CC3)[C@@H]3CS(=O)(=O)C[C@@H]32)o1	-1.28%
CN(C)S(=O)(=O)NCc1cccnc1Oc1ccccc1F	1.78%
Cc1ccc(C(=O)N2C[C@@H](NS(C)(=O)=O)[C@H](C(C)C)C2)cc1O	1.71%

SMILES	cytotoxicity at 70.5 h
COCCN(CC(N)=O)CC1CCCN(C2Cc3ccccc3C2)C1 (centres undefined)	7.41%
O=C(C1CCCO1)N1CCC(n2cc(-c3ccc(F)cc3)nn2)CC1 (centres undefined)	0.724%
CCc1c(C)nn(CCNC(=O)c2csc(C)n2)c1C	-6.58%
COCCN1CCCC(O)(CN2CCN(c3cc(C)ccn3)CC2)C1=O (centres undefined)	-0.635%
Cc1ccc(N2CCN(C(=O)C3CN(C)C(=O)N3)CC2=O)cc1 (centres undefined)	3.04%
CSC(C)Cc1c(-c2ccccc2)ncn1CCCNc1cccnc1 (centres undefined)	-0.408%
CNC(=O)[C@@H]1C[C@@H](NC(=O)Cc2nonc2C)CN1Cc1sccc1C	1.29%
O=C(NC1CCCN(CCc2ccccc2)C1)c1ccccn1 (centres undefined)	-1.94%
NC(=O)c1cnc2n1CCN(C(=O)c1ccc(-c3cc[nH]n3)cc1)C2	-10.3%
CN(Cc1cccnc1)CC1(O)CCCN(CC(C)(C)C)C1=O (centres undefined)	-2.66%
Clc1ccccc1Cc1noc(CN2CCCC(CN3CCCC3)C2)n1 (centres undefined)	-3.9%
O=C(NCc1nc(NC2CCCC2)c2cc(Cl)ccc2n1)c1cscn1	-2.54%
CN(C)c1ccccc1C(=O)N1CCCC(c2cccc(C(=O)O)c2)C1 (centres undefined)	-8.42%
Nc1cc(C(=O)N2C[C@H]3CC[C@@H]2CN(Cc2cccnc2)C3)ccn1	-6.5%
CC(C)CN1C(=O)CC[C@H]2CN(Cc3ncc[nH]3)CC[C@H]21	-3.44%
COc1cccc(C(C(=O)O)N(C)Cc2ccc(C)o2)c1 (centres undefined)	-0.112%
CCc1ccccc1OCCN1C[C@@H](NS(C)(=O)=O)[C@H](C(C)C)C1	-5.69%
O=C(C1CCCO1)N1CCc2onc(-c3ccc(Cl)cc3)c2C1 (centres undefined)	16.8%
CC(C)Cc1cc(C(=O)NCC(c2ccc(F)cc2)N(C)C)n(C)n1 (centres undefined)	-15.4%
COCCN1C(=O)[C@H]2CC[C@@H]1CN(S(=O)(=O)c1ccc(C#N)cc1)C2	-3.7%
Cc1nc2c(c(=O)n1C)CN(C(=O)C1CCCN(C3CCCC3)C1)C2 (centres undefined)	6.1%
CCn1c(-c2ccccc2)nn(CC(=O)NCCc2c[nH]cn2)c1=O	28.4%

SMILES	cytotoxicity at 70.5 h
CN(C)C(C(=O)N1CCN(C(=O)c2ccc[nH]2)CC1)c1ccc(F)cc1 (centres undefined)	9.68%
CCCc1nnc(N2CCC(C3CCN(C)CC3)CC2)o1	9.11%
Cc1nc(-n2cnnc2)ccc1-c1cccc2c1CCNC2	6.99%
Cc1nc(CCNc2nc(N(C)C)nc3c2CCCC3)cc(=O)[nH]1	-10.9%
CN(C)Cc1nnc(C(=O)N(C)Cc2ccc(C(F)(F)F)cc2)o1	-1.19%
O=C(O)C1c2nc[nH]c2CCN1CC(c1ccccc1)c1ccccc1 (centres undefined)	-3.04%
CN1CC2(CCN(C(=O)c3ccc(-n4cnnc4)cc3Cl)CC2)OC1=O	-4.9%
COc1ccccc1C1CNC(=O)c2nc(-c3nccn3C)[nH]c2C1 (centres undefined)	5.33%
N[C@H]1CN(S(=O)(=O)c2ccccc2)C[C@@H]1C1CC1	17.3%
O=C(CCN1C[C@@H]2CC[C@H]1C2)N1CCN(c2cccc(Cl)c2)C(=O)C1	-0.743%
Cc1cc(CNc2ccc(-c3nc(C4CC4)no3)cn2)no1	-4.31%
COc1ccc(F)c(-c2cc(C)nc(N)n2)c1	-7.05%
O=C1CC2(CCN(Cc3ccc(-c4ccccc4)s3)C2)C(=O)N1 (centres undefined)	-3.29%
OC1(CN2CCCC2)CCCN(Cc2cnc(-c3ccco3)nc2)C1 (centres undefined)	2.98%
COCCC1CCN(CC(C)n2cnc3ccccc32)CC1 (centres undefined)	-17.3%
Cc1nn(C)c(C)c1CCC(=O)N1CC(c2cccnc2)C1	0.0861%
CC(=O)Nc1ccc(Oc2cccc(CN3CCCC3)c2)cc1	-1.93%
Cc1ccoc1C(=O)N1CCNCC1C(=O)NCc1ccncc1 (centres undefined)	3.11%
O=C(N[C@H]1CN(C2CCOCC2)C[C@@H]1C1CC1)c1ccon1	-4.68%
O=C(NCc1nc[nH]n1)c1cc(COc2cccc(C(F)(F)F)c2)[nH]n1	21.3%
c1ccc2c(c1)CCN(c1ncnc3sc4c(c13)CCNC4)C2	-2.21%
CN1CCCC(CCC(=O)N2CCc3sc(C(=O)N(C)C)cc3C2)C1 (centres undefined)	-5.77%

SMILES	cytotoxicity at 70.5 h
Cn1cc(C(=O)N2CCCN(C3Cc4ccccc4C3)CC2)cn1	-13.8%
CCN(CCO)C(=O)c1cc(Cn2c(C)nc3ccccc32)[nH]n1	-9.25%
Cc1nc(-c2cn(CCN)nn2)n(-c2ccc(C(F)(F)F)cc2)n1	5.79%
Nc1cc(C(=O)NCC2CCN(CCc3ccccc3)C2)ccn1 (centres undefined)	-6.39%
CNC(=O)[C@@H]1C[C@@H](n2cc(-c3ccc(CN4CC=CC4)cc3)nn2)CN1	-9.45%
Cc1cnc(NCC(C)(C)N2CCOCC2)nc1	-4.82%
COc1cccc(-c2n[nH]cc2C(=O)NC(C)c2nc(C(C)C)no2)c1 (centres undefined)	-8.56%
CC(C)(C)CN1CCCC2(CCN(C(=O)c3ccc(O)nc3)C2)C1 (centres undefined)	-7.83%
Cc1cc(-c2nn(C)c(Cl)c2CN2CCOCC2CC(N)=O)no1 (centres undefined)	6.65%
CC(=O)NCC1CCN(c2cc(C(C)C)nc3ccnn23)CC1	-9.59%
Cc1cc(C(=O)N2CCOC(c3ccc(Cl)c(Cl)c3)C2)[nH]n1 (centres undefined)	-8.67%
N[C@@H](Cc1c[nH]cn1)C(=O)N1CCC(Oc2ccc(F)cc2)CC1	-4.52%
CCn1nc(C)c(CCN2CC3(CCOC3)CCC2=O)c1C (centres undefined)	25.5%
Cc1ccccc1N1CCCN(c2ccncn2)CC1	2.64%
Cc1nccn1Cc1nnc(C2CCCN(c3cnccn3)C2)n1C (centres undefined)	-18.6%
COc1ccc(/C=C/CN2CCC3(C2)CN(C)C(=O)O3)cc1 (centres undefined)	-6.62%
O=C(Cc1cccs1)N1C[C@@H]2CC[C@H](C1)N(Cc1ccccn1)C2=O	-10.5%
O=C(Nc1cccc(-c2cscn2)c1)N1CCC2(CC1)CC(O)CO2 (centres undefined)	-11.6%
COc1cccc(CN(C)Cc2nc3cc(C)ccc3[nH]2)c1O	-2.34%
CS(=O)(=O)c1ccc(NC(=O)N2C[C@H](O)[C@@H](N3CCOCC3)C2)cc1	20.5%
CCCc1cc(C(=O)N2C[C@@H](C)[C@](O)(C3CCC3)C2)[nH]n1	8.19%
CN(C)C[C@@H]1CN(C(=O)c2cc(-c3ccccc3)n[nH]2)C[C@@H]1CO	16.6%

SMILES	cytotoxicity at 70.5 h
Cc1cc(CN(C)CCC(O)c2ccccc2)nn1C (centres undefined)	-2.1%
CCCn1cnnc1CNCc1c[nH]nc1-c1ccc(F)cc1	-1.41%
Cc1csc2c(N3CCNC(C(=O)NCc4cccnc4)C3)ncnc12 (centres undefined)	18.9%
Cc1nc[nH]c1CN1CCn2nc(CN3CC[C@H](F)C3)cc2C1	-8.01%
COc1ccc2c(c1)OCC(C(=O)NCc1ncc3c(n1)CCC3)C2 (centres undefined)	-8.14%
Cn1nc2c(c1NC(=O)c1ccc(C3CCCN3C3CCC3)s1)CCC2 (centres undefined)	-6.85%
Cc1cccnc1CN1CCN(C(=O)c2ccn(C(C)(C)C)c2)CC1	40.4%
COc1ccc(-c2ccccc2CN)c(OC)c1	21.8%
COc1ccc(F)c(-c2ccnc(N)c2)c1	-14.3%
CN(C)CCn1ccnc1C1CCN(c2cc(N)nc(N)n2)CC1	-6.61%
CCc1nc(CCn2ccc3nc(OC)c(C#N)cc3c2=O)no1	-4.1%
CCCS(=O)(=O)N1CCCC(c2cccc(C(=O)O)c2)C1 (centres undefined)	-9.39%
CCC[C@@H]1CN(C(=O)c2cnc3ccccc3c2)C[C@H]1NS(C)(=O)=O	-1.26%
O=C(NCc1nc(NC2CCCC2)c2cc(Cl)ccc2n1)c1cncs1	-13.7%
COCCCN(C)c1nc(-c2ccncc2)nc2c1CCN(C(C)=O)C2	-7.86%
CCn1cncc1CNc1ccc(-c2nc(CC(C)C)no2)cn1	2.85%
CN1CCc2[nH]cnc2C12CCN(C(=O)c1noc3c1CCCC3)CC2	-10.9%
CN1CCC(N(CCc2ccccc2)C(=O)c2ccc(C#N)nc2)CC1	-3.27%
Cc1cccc(-c2ncc(CNC(C)Cc3ncccc3C)cn2)c1 (centres undefined)	48.7%
Cc1noc(-c2ccnc(N3CCN(C4CCOCC4)CC3)c2)n1	10.1%
Cc1ccccc1-c1cccc(CN2C[C@H]3C(=O)NC[C@@]3(C(=O)O)C2)c1	12.4%

From ChEMBL document CHEMBL3507680, “University of Dundee, Gates Library screen for HepG2 cell viability”
